# Laboratory results: US7635697B2, “Farnesyl protein transferase inhibitors and methods for treating proliferative diseases” (Schering Corporation, priority 2004, dated 2009)
# Where “and” joins values, the source holds several entries; their conditions need not be identical. Equal values may be shown once.
# Molecular target: purified human farnesyl protein transferase (Homo sapiens, UniProt P49354+P49356)
# Experiment: FPT activity: transfer of [3H] farnesyl from [3H] farnesyl pyrophosphate to biotinylated H-ras peptide (SPA)
# Assay type: biochemical
# Details: ranges are stated for a listed group of compounds; range ends given as 'about <' / 'about >'
# Procedure: FPT activity was determined by measuring the transfer of [^3H] farnesyl from [^3H] farnesyl pyrophosphate to a biotinylated peptide derived from the C-terminus of H-ras (biotin-CVLS). The reaction mixture contains: 50 mM Tris pH7.7, 5 mM MgCl2, 5 μM Zn^++, 5 mM DTT, 0.1% Triton-X, 0.05 μM peptide, 0.03 nM purified human farnesyl protein transferase, 0.180 μM [^3H] farnesyl pyrophosphate, plus the indicated concentration of tricyclic compound or vehicle control in a total volume of 100 μl. The reaction was incubated in a Vortemp shaking incubator at 37° C., 45 RPM for 60 minutes and stopped with 150 μl of 0.25 M EDTA containing 0.5% BSA and 1.3 mg/ml Streptavidin SPA beads. Radioactivity was measured in a Wallach 1450 Microbeta liquid scintillation counter. Percent inhibition was calculated relative to the vehicle control.
row,Structure (SMILES),IC50
1,O=C(Nc1cccc(Cn2ccnc2)c1)[C@H]1CN(C2c3ccc(Cl)cc3CCc3cccnc32)CCN1 (mixture of isomers) [(14.2)],0.05 to 8.9 nM
2,"CC(C)(C)OC(=O)N1CCN(C2c3ccc(Cl)cc3CCc3cc(Br)cnc32)CC1C(=O)Nc1cccc(Cn2ccnc2)c1 (single isomer, unassigned) [(1.3)]",0.05 to 8.9 nM and 0.05 to 2.7 nM and 0.05 to 1.2 nM
3,"CC(C)(C)OC(=O)N1CCN(C2c3ccc(Cl)cc3CCc3cc(Br)cnc32)CC1C(=O)Nc1cccc(Cn2ccnc2)c1 (single isomer, unassigned) [(1.4)]",0.05 to 8.9 nM and 0.05 to 2.7 nM and 0.05 to 1.2 nM
4,"Cc1cncn1Cc1cccc(NC(=O)C2CN(C3c4ccc(Cl)cc4CCc4cccnc43)CCN2C(=O)OC2CCCCC2)c1 (single isomer, unassigned) [(32.1)]",0.05 to 8.9 nM and 0.05 to 2.7 nM and 0.05 to 1.2 nM
5,Cc1cn(Cc2cccc(NC(=O)C3CN([C@@H]4c5ccc(Cl)cc5CCc5cc(Br)cnc54)CCN3)c2)cn1 (some centres unmarked) [(4.2)],0.05 to 8.9 nM
6,Cc1cn(Cc2cccc(NC(=O)C3CN(C4c5ccc(Cl)cc5CCc5cc(Br)cnc54)CCN3)c2)cn1 (centres unmarked) [(4.3)],0.05 to 8.9 nM
7,O=C(Nc1cccc(Cn2ccnc2)c1)[C@@H]1CN(C2c3ccc(Cl)cc3CCc3cc(Br)cnc32)CCN1C1c2ccc(Cl)cc2CCc2cc(Br)cnc21 (some centres unmarked) [(12.1)],0.05 to 8.9 nM
8,O=C(Nc1cccc(Cn2ccnc2)c1)[C@@H]1CN(C2c3ccc(Cl)cc3CCc3cc(Br)cnc32)CCN1 (some centres unmarked) [(12.2)],0.05 to 8.9 nM
9,O=C(Nc1cccc(Cn2ccnc2)c1)[C@H]1CNCCN1C1c2ccc(Cl)cc2CCc2cccnc21 (some centres unmarked) [(14.3)],0.05 to 8.9 nM
10,O=C(Nc1cccc(Cn2ccnc2)c1)C1CN(C2c3ccc(Cl)cc3CCc3cccnc32)CCN1C(=O)OC1CCCCC1 (centres unmarked) [(15.1)],0.05 to 8.9 nM and 0.05 to 2.7 nM and 0.05 to 1.2 nM
11,O=C(Nc1cccc(Cn2ccnc2)c1)C1CN([C@@H]2c3ccc(Cl)cc3CCc3cccnc32)CCN1C(=O)OC1CCCCC1 (some centres unmarked) [(15.2)],0.05 to 8.9 nM and 0.05 to 2.7 nM and 0.05 to 1.2 nM
12,O=C(C1CN(C2c3ccc(Cl)cc3CCc3cccnc32)CCN1C(=O)OC1CCCCC1)N(Cc1ccccc1)c1cccc(Cn2ccnc2)c1 (centres unmarked) [(16.1)],0.05 to 8.9 nM
13,Cc1cn(CCc2ccccc2NC(=O)[C@H]2CN([C@H]3c4ccc(Cl)cc4CCc4cccnc43)CCN2C(=O)OC2CCCCC2)cn1 [(47.1)],0.05 to 8.9 nM

# The remaining lines, values ahead:
row,IC50,Structure (SMILES)
1,0.05 to 8.9 nM,"Cc1cncn1Cc1cccc(NC(=O)C2CN(C3c4ccc(Cl)cc4CCc4cccnc43)CCN2C(=O)OC2CCCCC2)c1 (single isomer, unassigned) [(32.2)]"
2,0.05 to 8.9 nM and 0.05 to 2.7 nM,Cc1cn(Cc2cccc(NC(=O)C3CN([C@@H]4c5ccc(Cl)cc5CCc5cc(Br)cnc54)CCN3C(=O)NC3CCCCC3)c2)cn1 (some centres unmarked) [(5.1)]
3,0.05 to 8.9 nM and 0.05 to 2.7 nM,Cc1cn(Cc2cccc(NC(=O)C3CN(C4c5ccc(Cl)cc5CCc5cc(Br)cnc54)CCN3C(=O)NC3CCCCC3)c2)cn1 (centres unmarked) [(6.1)]
4,0.05 to 8.9 nM and 0.05 to 2.7 nM and 0.05 to 1.2 nM,Cc1cn(Cc2cccc(NC(=O)C3CN(C4c5ccc(Cl)cc5CCc5cccnc54)CCN3C(=O)OC3CCCCC3)c2)cn1 (centres unmarked) [(21.1)]
5,0.05 to 8.9 nM and 0.05 to 2.7 nM and 0.05 to 1.2 nM,Cc1cn(Cc2cccc(NC(=O)C3CN([C@@H]4c5ccc(Cl)cc5CCc5cccnc54)CCN3C(=O)OC3CCCCC3)c2)cn1 (some centres unmarked) [(22.1)]
6,0.05 to 8.9 nM and 0.05 to 2.7 nM and 0.05 to 1.2 nM,Cc1cn(Cc2cccc(NC(=O)C3CN(C4c5ccc(Cl)cc5CCc5cccnc54)CCN3C(=O)NC3CCCCC3)c2)cn1 (centres unmarked) [(26.1)]
7,0.05 to 8.9 nM,Cc1cn(Cc2cccc(NC(=O)C3CN(C4c5ccc(Cl)cc5CCc5cccnc54)CCN3C(=O)Nc3ccc(Cl)cc3)c2)cn1 (centres unmarked) [(27.1)]
8,0.05 to 8.9 nM and 0.05 to 2.7 nM and 0.05 to 1.2 nM,Cc1cn(Cc2cccc(NC(=O)C3CN(C4c5ccc(Cl)cc5CCc5cccnc54)CCN3C(=O)Cc3ccc(Cl)cc3)c2)cn1 (centres unmarked) [(28.1)]
9,0.05 to 8.9 nM and 0.05 to 2.7 nM and 0.05 to 1.2 nM,Cc1cn(Cc2cccc(NC(=O)C3CN(C4c5ccc(Cl)cc5CCc5cccnc54)CCN3S(C)(=O)=O)c2)cn1 (centres unmarked) [(29.1)]
10,0.05 to 8.9 nM and 0.05 to 2.7 nM and 0.05 to 1.2 nM,Cc1cn(Cc2cccc(NC(=O)C3CN([C@@H]4c5ccc(Cl)cc5CCc5cccnc54)CCN3C(=O)CC3CCN(C(N)=O)CC3)c2)cn1 (some centres unmarked) [(30.1)]
11,0.05 to 8.9 nM,NC(=O)N1CCC(CC(=O)N2CCN(C3c4ccc(Cl)cc4CCc4cccnc43)C(C(=O)Nc3cccc(Cn4ccnc4)c3)C2)CC1 (centres unmarked) [(45.1)]

# Tested on: Human tumor cells
# Experiment: Soft Agar Assay (anchorage-independent growth, colony count)
# Assay type: cell-based
# Details: Homo sapiens, ranges are stated for a listed group of compounds; range ends given as 'about <' / 'about >'
# Procedure: Anchorage-independent growth is a characteristic of tumorigenic cell lines. Human tumor cells can be suspended in growth medium containing 0.3% agarose and an indicated concentration of a farnesyl transferase inhibitor. The solution can be overlayed onto growth medium solidified with 0.6% agarose containing the same concentration of farnesyl transferase inhibitor as the top layer. After the top layer is solidified, plates can be incubated for 10-16 days at 37° C. under 5% CO2 to allow colony outgrowth. After incubation, the colonies can be stained by overlaying the agar with a solution of MTT (3-[4,5-dimethyl-thiazol-2-yl]-2,5-diphenyltetrazolium bromide, Thiazolyl blue) (1 mg/mL in PBS). Colonies can be counted and the IC50's can be determined.
row,Structure (SMILES),IC50 [nM]
1,O=C(Nc1cccc(Cn2ccnc2)c1)[C@H]1CN(C2c3ccc(Cl)cc3CCc3cccnc32)CCN1 (mixture of isomers) [(14.2)],0.3 to 50
2,"CC(C)(C)OC(=O)N1CCN(C2c3ccc(Cl)cc3CCc3cc(Br)cnc32)CC1C(=O)Nc1cccc(Cn2ccnc2)c1 (single isomer, unassigned) [(1.3)]",0.3 to 50
3,"Cc1cncn1Cc1cccc(NC(=O)C2CN(C3c4ccc(Cl)cc4CCc4cccnc43)CCN2C(=O)OC2CCCCC2)c1 (single isomer, unassigned) [(32.1)]",0.3 to 50
4,Cc1cn(Cc2cccc(NC(=O)C3CN([C@@H]4c5ccc(Cl)cc5CCc5cc(Br)cnc54)CCN3)c2)cn1 (some centres unmarked) [(4.2)],0.3 to 50
5,Cc1cn(Cc2cccc(NC(=O)C3CN(C4c5ccc(Cl)cc5CCc5cc(Br)cnc54)CCN3)c2)cn1 (centres unmarked) [(4.3)],0.3 to 50
6,O=C(Nc1cccc(Cn2ccnc2)c1)[C@H]1CN(C2c3ccc(Cl)cc3CCc3cccnc32)CCN1C1c2ccc(Cl)cc2CCc2cccnc21 (some centres unmarked) [(14.1)],0.3 to 50
7,O=C(Nc1cccc(Cn2ccnc2)c1)[C@H]1CNCCN1C1c2ccc(Cl)cc2CCc2cccnc21 (some centres unmarked) [(14.3)],0.3 to 50
8,O=C(Nc1cccc(Cn2ccnc2)c1)C1CN(C2c3ccc(Cl)cc3CCc3cccnc32)CCN1C(=O)OC1CCCCC1 (centres unmarked) [(15.1)],0.3 to 50
9,O=C(Nc1cccc(Cn2ccnc2)c1)C1CN([C@@H]2c3ccc(Cl)cc3CCc3cccnc32)CCN1C(=O)OC1CCCCC1 (some centres unmarked) [(15.2)],0.3 to 50
10,O=C(C1CN(C2c3ccc(Cl)cc3CCc3cccnc32)CCN1C(=O)OC1CCCCC1)N(Cc1ccccc1)c1cccc(Cn2ccnc2)c1 (centres unmarked) [(16.1)],0.3 to 50
11,CC(C)(C)OC(=O)N1CCN(C2c3ccc(Cl)cc3CCc3cccnc32)C(C(=O)Nc2cccc(Cn3ccnc3)c2)C1 (centres unmarked) [(40.1)],0.3 to 50
12,CC(C)(C)OC(=O)N1CCN([C@@H]2c3ccc(Cl)cc3CCc3cccnc32)C(C(=O)Nc2cccc(Cn3ccnc3)c2)C1 (some centres unmarked) [(40.2)],0.3 to 50

# The next lines start with the values.
row,IC50 [nM],Structure (SMILES)
1,0.3 to 50,Cc1cn(Cc2cccc(NC(=O)C3CN([C@@H]4c5ccc(Cl)cc5CCc5cc(Br)cnc54)CCN3C(=O)NC3CCCCC3)c2)cn1 (some centres unmarked) [(5.1)]
2,0.3 to 50,Cc1cn(Cc2cccc(NC(=O)C3CN(C4c5ccc(Cl)cc5CCc5cc(Br)cnc54)CCN3C(=O)NC3CCCCC3)c2)cn1 (centres unmarked) [(6.1)]
3,0.3 to 50,Cc1cn(Cc2cccc(NC(=O)C3CN(C4c5ccc(Cl)cc5CCc5cccnc54)CCN3C(=O)OC3CCCCC3)c2)cn1 (centres unmarked) [(21.1)]
4,0.3 to 50,Cc1cn(Cc2cccc(NC(=O)C3CN([C@@H]4c5ccc(Cl)cc5CCc5cccnc54)CCN3C(=O)OC3CCCCC3)c2)cn1 (some centres unmarked) [(22.1)]
5,0.3 to 50,Cc1cn(Cc2cccc(NC(=O)C3CN(C4c5ccc(Cl)cc5CCc5cccnc54)CCN3C(=O)Cc3ccc(Cl)cc3)c2)cn1 (centres unmarked) [(28.1)]
6,0.3 to 50,Cc1cn(Cc2cccc(NC(=O)C3CN([C@@H]4c5ccc(Cl)cc5CCc5cccnc54)CCN3C(=O)CC3CCN(C(N)=O)CC3)c2)cn1 (some centres unmarked) [(30.1)]
7,0.3 to 50,NC(=O)N1CCC(CC(=O)N2CCN(C3c4ccc(Cl)cc4CCc4cccnc43)C(C(=O)Nc3cccc(Cn4ccnc4)c3)C2)CC1 (centres unmarked) [(45.1)]

# Same assay, conditions: ranges are stated for a listed group of compounds; range ends given as 'about <' / 'about >'
row,IC50 [nM],Structure (SMILES)
1,< 0.5,Cc1nccn1Cc1cccc(NC(=O)C2CN(C3c4ccc(Cl)cc4CCc4cccnc43)CCN2C(=O)OC2CCCCC2)c1 (centres unmarked) [(31.1)]
